In US20220184019A1, “Use of chlorogenic acid in preparation of drug for preventing and treating ocular inflammation” (SICHUAN JIUZHANG BIOLOGICAL SCIENCE AND TECHNOLOGY CO., LTD, priority 2017, published 2022):
Entries after “also recorded” stand apart in the source; their conditions may differ. Marks after values point to notes of the source that are not given here.

Key:
[1] = tested on: experimental autoimmune uveitis (EAU); assay: Therapeutic effect on IRBP-induced experimental autoimmune uveitis in rats; slit-lamp ocular inflammation score (Caspi clinical grading); type: in vivo, SD rats; details: 20 mg/kg intraperitoneal; for Scores of ocular inflammation in rats: EAU SD rats
[2] = tested on: scleritis; assay: Clinical efficacy on scleritis: inflammation control in one month; type: in vivo, patients; details: for Cure / Improved / Ineffective / Total effective rate: scleritis patients, n=10 per group, inflammation control in one month
Experimental: (§1) Twenty patients with scleritis were randomly divided into chlorogenic acid test group (10 patients) and control group (10 patients). Patients in chlorogenic acid test group were given chlorogenic acid at a dose of 3 mg/(kg·d) by intramuscular injection. The patients in the control group were given dexamethasone sodium phosphate (5 mg/d) by intravenous injection, and after continuous observation and treatment for 5 days, they initially received oral […] (1 mg/(kg·d)). Both groups were continuously administrated for one month.
(§2) According to the random table, 20 patients with scleritis were randomly divided into two groups, namely chlorogenic acid test group and dexamethasone sodium phosphate control group. Among 10 patients of chlorogenic acid control group, there were one male and 9 females, with an average age of (30.5±5.1) years old and an average course of disease (5.1±0.3). In the dexamethasone sodium phosphate control group, there were one male and 9 females, with an average age of (31.5±4.7) years old and an average course of disease (5.5±0.3). For both groups of patients, there was no statistically significant difference (P>0.05) in the clinical data including age, gender, and disease course, having comparability.
(§3) (1) Inquiring the medical history in detail, performing detailed examinations such as slit lamp examination, fundus examination, ultrasound examination, eye imaging, etc., and making a clear diagnosis of the patient with scleritis; (2) No glucocorticoid and chlorogenic acid contraindications; (3) Patients having non-microbial infectious scleritis; (4) Patients having no obvious abnormalities in blood routine, electrolytes, liver function, kidney function, blood pressure, blood sugar, and so on.
(§4) (1) Patients with microbial infectious scleritis and systemic infectious diseases; (2) Episcleritis; (3) Patients allergic to glucocorticoids or having toxic side effects due to administration of glucocorticoids; (4) Pregnant women and lactating women as well as babies; (5) Patients with moderate hypertension, severe cardiovascular and cerebrovascular diseases, diabetes, as well as liver and kidney function impairment; (6) Patients having poor compliance and refusing regular review and follow-up.
(§5) Patients in chlorogenic acid test group were given chlorogenic acid at a dose of 3 mg/(kg·d) by intramuscular injection. The patients in the control group were given dexamethasone sodium phosphate at 5 mg/day by intravenous infusion, and after continuous observation and treatment for 3 days, they were changed to oral prednison (1 mg/(kg·d)). Both groups were continuously administrated for one month.
(1) Cure: the eye symptoms and signs completely disappeared after treatment; (2) Improved: the eye symptoms and signs improved after treatment; (3) Ineffective: the inflammation was not controlled, or the situation was the same as before treatment.

[3] = tested on: scleritis; assay: Clinical efficacy on scleritis: vision recovery in one month (logarithmic visual acuity chart); type: in vivo, patients; details: for Ineffective / Total effective rate / Improved / Significantly improved vision: scleritis patients, n=10 per group, vision recovery in one month; for Improved: improving 1-2 lines; for Significantly improved vision: improving 3 lines or more
Experimental: as §1, §2, §3, §4, §5
(1) After treatment, the same logarithmic visual acuity chart (the best corrected visual acuity was measured for those with ametropia) was used to detect and record the vision. Significant improvement: improving 3 lines or more; improvement: improving 1-2 lines; ineffective: the vision was not improved or even decreased.

[4] = 3 mg/(kg·d) intramuscular, one month, vs dexamethasone sodium phosphate control, P<0.05

O=C(/C=C/c1ccc(O)c(O)c1)O[C@@H]1C[C@](O)(C(=O)O)C[C@@H](O)[C@H]1O [Chlorogenic acid]
Ocular inflammation (score) compared with the control group at the same time point ([1]; vs normal saline control, P<0.05): significantly reduced; also recorded: significantly lower
Scores of ocular inflammation in rats ([1]; day 6 after immunization): 0.6 ± 0.2
Scores of ocular inflammation in rats ([1]; day 7 after immunization): 0.6 ± 0.2
Scores of ocular inflammation in rats ([1]; day 8 after immunization): 0.7 ± 0.4
Scores of ocular inflammation in rats ([1]; day 9 after immunization): 1.1 ± 0.4
Scores of ocular inflammation in rats ([1]; day 10 after immunization): 1.3 ± 0.6
Scores of ocular inflammation in rats ([1]; day 11 after immunization): 1.9 ± 0.6
Scores of ocular inflammation in rats ([1]; day 12 after immunization): 2.0 ± 0.4
Scores of ocular inflammation in rats ([1]; day 13 after immunization): 1.3 ± 0.6
Scores of ocular inflammation in rats ([1]; day 14 after immunization): 1.1 ± 0.3
Scores of ocular inflammation in rats ([1]; day 15 after immunization): 0.5 ± 0.3
Scores of ocular inflammation in rats ([1]; day 16 after immunization): 0.4 ± 0.3
Scores of ocular inflammation in rats ([1]; day 17 after immunization): 0.3 ± 0.1
Scores of ocular inflammation in rats ([1]; day 18 after immunization): 0.3 ± 0.1
Scores of ocular inflammation in rats ([1]; day 19 after immunization): 0.3 ± 0.1
Scores of ocular inflammation in rats ([1]; day 20 after immunization): 0.3 ± 0.1
Inflammation control effect versus control group [2, 4]: significantly better than the control group
Cure [2]: 5 (50%)* cases (%)
Improved [2]: 3 (30%) cases (%)
Ineffective [2]: 2 (20%) cases (%)
Total effective rate [2]: 8 (80%)* cases (%)
Vision recovery versus control group [3, 4]: significantly better than the control group
Ineffective [3]: 1 (10%) case (%)
Total effective rate [3]: 90 (90%)* case (%)
Improved [3]: 3 (30%) case (%)
Significantly improved vision [3]: 6 (60%)* case (%)

C[C@@H]1C[C@H]2[C@@H]3CCC4=CC(=O)C=C[C@]4(C)[C@@]3(F)[C@@H](O)C[C@]2(C)[C@@]1(O)C(=O)COP(=O)(O)O [Control group, dexamethasone sodium phosphate, reference compound]
Cure [2]: 2 (20%) cases (%)
Improved [2]: 3 (30%) cases (%)
Ineffective [2]: 5 (50%) cases (%)
Total effective rate [2]: 5 (50%) cases (%)
Ineffective [3]: 4 (40%) case (%)
Total effective rate [3]: 60 (60%) case (%)
Improved [3]: 3 (30%) case (%)
Significantly improved vision [3]: 3 (30%) case (%)
